Laboratory results: patent publication US7323318B2, “Assay for distinguishing live and dead cells” (priority 2004, dated 2008)

How the values were obtained:
[1] = test system: live cells and dead cells; experiment: Total cell area in live and dead cells (pixel count within segmented boundary); type: cell-based; conditions: FIG. 6B
Description: The area was determined from a pixel count within the boundary determined by segmentation. […] A simple consideration of the average cell area for all cells (including live cells and dead cells) would likely mask the fact that the higher concentrations of the drug cause dead cells to become progressively larger. The effect of the live cells masks, somewhat, the effect on the dead cells. […] Note that the average area of the live and dead cells together is shown as lines 611 in FIG. 6B. Note also that, as with the plot in FIG. 6A, the live cells were discriminated from dead cells using the mean DM1-α intensity of each cell.

[2] = test system: TGN (trans-Golgi network); conditions: FIG. 6C; increasing concentrations
From the text: As with FIGS. 6A and 6B, the live-dead discrimination in FIG. 6C was made using mean DM1-α intensity (per cell).

population of cells = experiment: Image-based live-dead cell assay using mean tubulin marker (DM1-α) intensity per cell
From the text: FIG. 1 presents two images of cells: a left image of a control population of cells treated with DMSO, and a right image of a test population of cells treated with the compound carbonyl cyanide 3-chlorophenylhydrazone (herein CCCP), a poison which acts on the cellular respiratory pathway. After treatment with DMSO or CCCP, the cells were fixed and stained with multiple markers. Three of these markers are shown in the image: red indicates DNA, blue indicates tubulin, and green indicates the trans-Golgi network. […] Note that individual cells are identified (whether alive or dead) by a small red area in the central region. This red area is associated with DNA in the cell nucleus. […] This is not necessarily an indication that the dead cells have increased levels of Golgi.
FIG. 2 presents a flowchart depicting one method for producing a model that can be used to determine whether an individual cell is live or dead. As shown in a block 203, the method begins by preparing the cell populations that are to be used for imaging. In certain embodiments, a sandwich culture is employed. In this preliminary operation, some cell populations are treated as controls (assumed to have a high fraction of cells that are alive) and other cell populations are treated as test samples (assumed to have a significant fraction of cells that are dead). Upon completion of treatment, cells are fixed and stained with appropriate markers. The test cells will all have been treated with a compound or other stimulus known to kill a significant percentage of the cells in a given population. Together, the control and test cell populations provide relatively large numbers of live and dead cells. The size of these populations should be large enough to provide a training set sufficient to generate a model that can reliably distinguish live cells from dead cells.
An exemplary two-step segmentation process is illustrated in FIGS. 3A and 3B. FIG. 3A presents the result of the first step. As shown there, two images (the left one for a control population treated with DMSO and the right one for a test population treated with 2.5 μM CCCP) show nuclei circled in the interiors of individual cells. Cellular DNA was stained with Hoechst […], which emits fluorescence at a wavelength selectively collected in the FIG. 3A image to permit identification of the individual nuclei. Each such nucleus is presumed to belong to a separate cell.
FIG. 3B presents the results of the second step of the cell segmentation procedure. As shown, the cell populations of FIG. 3A are again presented, but this time at the Alexa 647 channel (i.e., the bright regions in the image locate the source of radiation emitted at the wavelength of Alexa 647). […] The cell boundaries so identified are circled within the images. Each cell boundary defines a collection of pixels that are deemed to belong to a particular cell. For image processing those pixels are used extracting information about the particular cell in question.
After the boundaries of each cell have been identified, the appropriate live-dead indicator feature can be extracted on a cell-by-cell basis. See block 209. As indicated above, the intensity of a marker for tubulin (an indicator of local tubulin concentration within the cell) can be identified for each pixel in a given cell. Each cell will be characterized on the basis of its level of tubulin, whether based on an average value over all pixels in the cell, a maximum or minimum value within the cell, or some other indicator of tubulin quantity. In a preferred embodiment, the mean tubulin marker intensity is calculated over the pixels in a cell and the resulting value is employed as the live-dead indicator feature.
Additional images are presented in FIG. 3C, highlighting the marker DM1-α for tubulin. […] Note that live and dead cells can be usually distinguished by visual inspection. […]

O=C(O)Cc1ccccc1Nc1c(Cl)cccc1Cl [diclofenac]
total area of the live cells ([1]; beginning at approximately the same concentration (arbitrary 100)): gradually decreased | area of the dead cells ([1]; from the arbitrary concentration of 100 in the plot): begins to increase rather dramatically

Nc1c2c(nc3ccccc13)CCCC2 [tacrine]
Golgi (TGN) marker intensity signal in dead cells [2]: relatively minimal affect | mean Golgi (TGN) marker intensity signal in live cells [2]: dramatically increase

N#CC(C#N)=NNc1cccc(Cl)c1 [CCCP, carbonyl cyanide 3-chlorophenylhydrazone]
number of cells with significant tubulin concentration versus DMSO control (population of cells; FIG. 1, fixed and stained cells, tubulin marker (blue)): far fewer cells with significant tubulin concentration | percentage of dead cells versus DMSO control population (population of cells; FIG. 3C, 2.5 μM CCCP, DM1-α tubulin channel): far higher percentage of dead cells | mean tubulin marker intensity per cell (histogram) versus control cells (population of cells; FIG. 4B, 0.625 μM to 5 μM CCCP for 24 hours, test cells pooled with control cells): a relatively large fraction of the cells have a mean tubulin marker intensity well below that associated with the control cells | concentration at which the number of live cells begins to decrease (population of cells; FIG. 6A, normalized concentration, decrease at roughly the same rate as the dead cell increase): about 0.5 μM | concentration at which the number of dead cells begins to increase dramatically (population of cells; FIG. 6A, normalized concentration, live/dead discriminated by mean DM1-α intensity, samples of around 800 cells): about 0.5 μM | total number of cells (number of objects, DNA spots) across concentrations (population of cells; FIG. 6A, three samples of around 800 cells each): remain approximately constant
